Measured values as given in the supplement of paper PMC10307832.

Experiments:
Test in all cases: relative viability (nuclei count vs DMSO), 5 days (fraction); higher = more cells survive
NCI-H2085 = system: NCI-H2085
Method in brief: (§1)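 A single step with final 0.05% Triton X-100, 1% formaldehyde and 1 ug/ml Hoechst fixed the cells and stained nuclei 5 days after treatment. Lung cancer cell lines in 1536-well plates had been treated by pin tool the day after seeding with one drug alone or a fixed anchor-drug dose plus five library-drug doses (not always all listed) in √10 steps, and nuclei were counted on 4× images. Relative viability is the ratio of nuclei in treated wells to nuclei in vehicle wells, taken as the median of duplicate plates.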

ABC-1 = system: ABC-1
Method in brief: as §1

SK-MES-1 = system: SK-MES-1
Method in brief: as §1

HOP-62 = system: HOP-62
Method in brief: as §1

NCI-H727 = system: NCI-H727
Method in brief: as §1

NCI-H1755 = system: NCI-H1755
Method in brief: as §1

NCI-H322M = system: NCI-H322M
Method in brief: as §1

NCI-H2009 = system: NCI-H2009
Method in brief: as §1

UMC-11 = system: UMC-11
Method in brief: as §1

LCLC-97TM1 = system: LCLC-97TM1
Method in brief: as §1

RERF-LC-KJ = system: RERF-LC-KJ
Method in brief: as §1

NCI-H1437 = system: NCI-H1437
Method in brief: as §1

LOU-NH91 = system: LOU-NH91
Method in brief: as §1

NCI-H23 = system: NCI-H23
Method in brief: as §1

NCI-H650 = system: NCI-H650
Method in brief: as §1

NCI-H2405 = system: NCI-H2405
Method in brief: as §1

NCI-H2023 = system: NCI-H2023
Method in brief: as §1

NCI-H1355 = system: NCI-H1355
Method in brief: as §1

HCC-78 = system: HCC-78
Method in brief: as §1

NCI-H1792 = system: NCI-H1792
Method in brief: as §1

ChaGo-K-1 = system: ChaGo-K-1
Method in brief: as §1

NCI-H2170 = system: NCI-H2170
Method in brief: as §1

CCCCCCCCCCCC1=C(O)C(=O)C=C(O)C1=O [Embelin] + C[C@]1(O)C[C@@H](c2nc(-c3ccc4ccc(-c5ccccc5)nc4c3)c3c(N)nccn32)C1 [Linsitinib] (partner 1 µM)
relative viability (NCI-H2085; first compound 0.08 µM): 0.909 | relative viability (NCI-H2085; first compound 0.8 µM): 1.02 | relative viability (NCI-H2085; first compound 2.53 µM): 0.972 | relative viability (NCI-H2085; first compound 8 µM): 1.04 | relative viability (ABC-1; first compound 0.08 µM): 0.863 | relative viability (ABC-1; first compound 0.8 µM): 0.786 | relative viability (ABC-1; first compound 2.53 µM): 0.772 | relative viability (ABC-1; first compound 8 µM): 0.825 | relative viability (SK-MES-1; first compound 0.08 µM): 1.17 | relative viability (SK-MES-1; first compound 0.8 µM): 1.11 | relative viability (SK-MES-1; first compound 2.53 µM): 1.17 | relative viability (SK-MES-1; first compound 8 µM): 1.04 | relative viability (HOP-62; first compound 0.08 µM): 0.937 | relative viability (HOP-62; first compound 0.8 µM): 1.05 | relative viability (HOP-62; first compound 2.53 µM): 1.06 | relative viability (HOP-62; first compound 8 µM): 0.96 | relative viability (NCI-H727; first compound 0.08 µM): 0.282 | relative viability (NCI-H727; first compound 0.8 µM): 0.192 | relative viability (NCI-H727; first compound 2.53 µM): 0.307 | relative viability (NCI-H727; first compound 8 µM): 0.268 | relative viability (NCI-H1755; first compound 0.08 µM): 1.03 | relative viability (NCI-H1755; first compound 0.8 µM): 1.06 | relative viability (NCI-H1755; first compound 2.53 µM): 1.07 | relative viability (NCI-H1755; first compound 8 µM): 0.98 | relative viability (NCI-H322M; first compound 0.08 µM): 0.936 | relative viability (NCI-H322M; first compound 0.8 µM): 1.08 | relative viability (NCI-H322M; first compound 2.53 µM): 1.1 | relative viability (NCI-H322M; first compound 8 µM): 0.856 | relative viability (NCI-H2009; first compound 0.08 µM): 1.24 | relative viability (NCI-H2009; first compound 0.8 µM): 1.3 | relative viability (NCI-H2009; first compound 2.53 µM): 1.21 | relative viability (NCI-H2009; first compound 8 µM): 1.12 | relative viability (UMC-11; first compound 0.08 µM): 1.03 | relative viability (UMC-11; first compound 0.8 µM): 1.08 | relative viability (UMC-11; first compound 2.53 µM): 1.11 | relative viability (UMC-11; first compound 8 µM): 0.984 | relative viability (LCLC-97TM1; first compound 0.8 µM): 0.239 | relative viability (LCLC-97TM1; first compound 2.53 µM): 0.233 | relative viability (LCLC-97TM1; first compound 8 µM): 0.204 | relative viability (RERF-LC-KJ; first compound 0.08 µM): 0.905 | relative viability (RERF-LC-KJ; first compound 0.8 µM): 0.89 | relative viability (RERF-LC-KJ; first compound 2.53 µM): 0.961 | relative viability (RERF-LC-KJ; first compound 8 µM): 0.908 | relative viability (NCI-H1437; first compound 0.08 µM): 1.01 | relative viability (NCI-H1437; first compound 0.8 µM): 1.1 | relative viability (NCI-H1437; first compound 2.53 µM): 1.24 | relative viability (NCI-H1437; first compound 8 µM): 0.76 | relative viability (LOU-NH91; first compound 0.08 µM): 1.02 | relative viability (LOU-NH91; first compound 0.8 µM): 1.23 | relative viability (LOU-NH91; first compound 2.53 µM): 1.03 | relative viability (LOU-NH91; first compound 8 µM): 0.877 | relative viability (NCI-H23; first compound 0.08 µM): 0.548 | relative viability (NCI-H23; first compound 0.8 µM): 0.547 | relative viability (NCI-H23; first compound 2.53 µM): 0.609 | relative viability (NCI-H23; first compound 8 µM): 0.652 | relative viability (NCI-H650; first compound 0.08 µM): 0.812 | relative viability (NCI-H650; first compound 0.8 µM): 1.41 | relative viability (NCI-H650; first compound 2.53 µM): 0.653 | relative viability (NCI-H650; first compound 8 µM): 0.716 | relative viability (NCI-H2405; first compound 0.08 µM): 0.978 | relative viability (NCI-H2405; first compound 0.8 µM): 1.16 | relative viability (NCI-H2405; first compound 2.53 µM): 0.973 | relative viability (NCI-H2405; first compound 8 µM): 0.92 | relative viability (NCI-H2023; first compound 0.08 µM): 0.707 | relative viability (NCI-H2023; first compound 0.8 µM): 0.66 | relative viability (NCI-H2023; first compound 2.53 µM): 0.794 | relative viability (NCI-H2023; first compound 8 µM): 0.609 | relative viability (NCI-H1355; first compound 0.08 µM): 0.757 | relative viability (NCI-H1355; first compound 0.8 µM): 0.813 | relative viability (NCI-H1355; first compound 2.53 µM): 0.968 | relative viability (NCI-H1355; first compound 8 µM): 0.724 | relative viability (HCC-78; first compound 0.08 µM): 0.516 | relative viability (HCC-78; first compound 0.8 µM): 0.623 | relative viability (HCC-78; first compound 2.53 µM): 0.52 | relative viability (HCC-78; first compound 8 µM): 0.413 | relative viability (NCI-H1792; first compound 0.08 µM): 0.589 | relative viability (NCI-H1792; first compound 0.8 µM): 0.607 | relative viability (NCI-H1792; first compound 2.53 µM): 0.72 | relative viability (NCI-H1792; first compound 8 µM): 0.434

CCCCCCCCCCCC1=C(O)C(=O)C=C(O)C1=O [Embelin] + CC1(C)CCC(c2ccc(Cl)cc2)=C(CN2CCN(c3ccc(C(=O)NS(=O)(=O)c4ccc(N[C@H](CCN5CCOCC5)CSc5ccccc5)c(S(=O)(=O)C(F)(F)F)c4)cc3)CC2)C1 [Navitoclax] (partner 0.5 µM)
relative viability (NCI-H2085; first compound 0.08 µM): 1.09 | relative viability (NCI-H2085; first compound 0.8 µM): 1.31 | relative viability (NCI-H2085; first compound 2.53 µM): 1.2 | relative viability (NCI-H2085; first compound 8 µM): 1 | relative viability (ChaGo-K-1; first compound 0.08 µM): 1.17 | relative viability (ChaGo-K-1; first compound 0.8 µM): 1.54 | relative viability (ChaGo-K-1; first compound 2.53 µM): 0.956 | relative viability (ChaGo-K-1; first compound 8 µM): 0.777 | relative viability (NCI-H2170; first compound 0.08 µM): 0.641 | relative viability (NCI-H2170; first compound 0.8 µM): 0.678 | relative viability (NCI-H2170; first compound 2.53 µM): 0.698 | relative viability (NCI-H2170; first compound 8 µM): 0.547 | relative viability (SK-MES-1; first compound 0.08 µM): 1.23 | relative viability (SK-MES-1; first compound 0.8 µM): 1.32 | relative viability (SK-MES-1; first compound 2.53 µM): 1.25 | relative viability (SK-MES-1; first compound 8 µM): 1.43 | relative viability (HOP-62; first compound 0.08 µM): 0.882 | relative viability (HOP-62; first compound 0.8 µM): 1.16 | relative viability (HOP-62; first compound 2.53 µM): 1.09 | relative viability (HOP-62; first compound 8 µM): 1.22 | relative viability (NCI-H727; first compound 0.08 µM): 0.4 | relative viability (NCI-H727; first compound 0.8 µM): 0.537 | relative viability (NCI-H727; first compound 2.53 µM): 0.435 | relative viability (NCI-H727; first compound 8 µM): 0.392 | relative viability (NCI-H1755; first compound 0.08 µM): 0.993 | relative viability (NCI-H1755; first compound 0.8 µM): 1.03 | relative viability (NCI-H1755; first compound 2.53 µM): 1.07 | relative viability (NCI-H1755; first compound 8 µM): 0.991 | relative viability (NCI-H322M; first compound 0.08 µM): 1.1 | relative viability (NCI-H322M; first compound 0.8 µM): 1.37 | relative viability (NCI-H322M; first compound 2.53 µM): 1.48 | relative viability (NCI-H322M; first compound 8 µM): 1.12 | relative viability (NCI-H2009; first compound 0.08 µM): 1.23 | relative viability (NCI-H2009; first compound 0.8 µM): 1.24 | relative viability (NCI-H2009; first compound 2.53 µM): 1.23 | relative viability (NCI-H2009; first compound 8 µM): 1.08 | relative viability (UMC-11; first compound 0.08 µM): 0.328 | relative viability (UMC-11; first compound 0.8 µM): 0.32 | relative viability (UMC-11; first compound 2.53 µM): 0.319 | relative viability (UMC-11; first compound 8 µM): 0.289 | relative viability (LCLC-97TM1; first compound 0.8 µM): 0.46 | relative viability (LCLC-97TM1; first compound 2.53 µM): 0.499 | relative viability (LCLC-97TM1; first compound 8 µM): 0.399 | relative viability (RERF-LC-KJ; first compound 0.08 µM): 0.963 | relative viability (RERF-LC-KJ; first compound 0.8 µM): 1.14 | relative viability (RERF-LC-KJ; first compound 2.53 µM): 0.808 | relative viability (RERF-LC-KJ; first compound 8 µM): 0.821 | relative viability (NCI-H1437; first compound 0.08 µM): 1.07 | relative viability (NCI-H1437; first compound 0.8 µM): 1.14 | relative viability (NCI-H1437; first compound 2.53 µM): 1.11 | relative viability (NCI-H1437; first compound 8 µM): 0.707 | relative viability (LOU-NH91; first compound 0.08 µM): 0.77 | relative viability (LOU-NH91; first compound 0.8 µM): 1.02 | relative viability (LOU-NH91; first compound 2.53 µM): 0.837 | relative viability (LOU-NH91; first compound 8 µM): 0.637 | relative viability (NCI-H23; first compound 0.08 µM): 0.848 | relative viability (NCI-H23; first compound 0.8 µM): 0.904 | relative viability (NCI-H23; first compound 2.53 µM): 0.884 | relative viability (NCI-H23; first compound 8 µM): 0.74 | relative viability (NCI-H2405; first compound 0.08 µM): 0.986 | relative viability (NCI-H2405; first compound 0.8 µM): 1.41 | relative viability (NCI-H2405; first compound 2.53 µM): 0.875 | relative viability (NCI-H2405; first compound 8 µM): 0.906 | relative viability (NCI-H2023; first compound 0.08 µM): 1.05 | relative viability (NCI-H2023; first compound 0.8 µM): 1.05 | relative viability (NCI-H2023; first compound 2.53 µM): 1.02 | relative viability (NCI-H2023; first compound 8 µM): 0.689 | relative viability (NCI-H1355; first compound 0.08 µM): 1.04 | relative viability (NCI-H1355; first compound 0.8 µM): 1.05 | relative viability (NCI-H1355; first compound 2.53 µM): 1.06 | relative viability (NCI-H1355; first compound 8 µM): 0.884 | relative viability (HCC-78; first compound 0.08 µM): 0.797 | relative viability (HCC-78; first compound 0.8 µM): 0.931 | relative viability (HCC-78; first compound 2.53 µM): 0.863 | relative viability (HCC-78; first compound 8 µM): 0.762 | relative viability (NCI-H1792; first compound 0.08 µM): 0.593 | relative viability (NCI-H1792; first compound 0.8 µM): 0.649 | relative viability (NCI-H1792; first compound 2.53 µM): 0.892 | relative viability (NCI-H1792; first compound 8 µM): 0.669
